# Measurements as given in US8778957B2, “CGRP receptor antagonists” (Merck Sharp & Dohme Corp., priority 2009, dated 2014).
# Target: recombinant human CL receptor/RAMP1 (Homo sapiens (Human), UniProt O60894+Q16602)
# Experiment: Recombinant receptor binding assay (125I-hCGRP)
# Conditions: membranes of HEK 293 cells expressing human CL receptor/RAMP1, 10 pM 125I-hCGRP
# Procedure: RECOMBINANT RECEPTOR: Human CL receptor (Genbank accession number L76380) was subcloned into the expression vector pIREShyg2 (BD Biosciences Clontech) as a 5′NheI and 3′ PmeI fragment. Human RAMP 1 (Genbank accession number AJ001014) was subcloned into the expression vector pIRESpuro2 (BD Biosciences Clontech) as a 5′NheI and 3′NotI fragment. HEK 293 cells (human embryonic kidney cells; ATCC #CRL-1573) were cultured in DMEM with 4.5 g/L glucose, 1 mM sodium pyruvate and 2 mM glutamine supplemented with 10% fetal bovine serum (FBS), 100 units/mL penicillin and 100 μg/mL streptomycin, and maintained at 37° C. and 95% humidity. Cells were subcultured by treatment with 0.25% trypsin with 0.1% EDTA in HBSS. Stable cell line generation was accomplished by co-transfecting 10 μg of DNA with 30 μg Lipofectamine 2000 (Invitrogen) in 75 cm^2 flasks. CL receptor and RAMP1 expression constructs were co-transfected in equal amounts. Twenty-four hours after transfection the cells were diluted and selective medium (growth medium+300 μg/mL hygromycin and 1 μg/mL puromycin) was added the following day. A clonal cell line was generated by single cell deposition utilizing a FACS Vantage SE (Becton Dickinson). Growth medium was adjusted to 150 μg/mL hygromycin and 0.5 μg/mL puromycin for cell propagation.
# RECOMBINANT RECEPTOR BINDING ASSAY: Cells expressing recombinant human CL receptor/RAMP1 were washed with PBS and harvested in harvest buffer containing 50 mM HEPES, 1 mM EDTA and Complete protease inhibitors (Roche). The cell suspension was disrupted with a laboratory homogenizer and centrifuged at 48,000 g to isolate membranes. The pellets were resuspended in harvest buffer plus 250 mM sucrose and stored at −70° C. For binding assays, 20 μg of membranes were incubated in 1 ml binding buffer (10 mM HEPES, pH 7.4, 5 mM MgCl2, and 0.2% BSA) for 3 hours at room temperature containing 10 pM ^125I-hCGRP (GE Healthcare) and antagonist. The assay was terminated by filtration through 96-well GFB glass fiber filter plates (PerkinElmer) that had been blocked with 0.05% polyethyleneimine. The filters were washed 3 times with ice-cold assay buffer (10 mM HEPES, pH 7.4 and 5 mM MgCl2). Scintillation fluid was added and the plates were counted on a Topeount (Packard). Non-specific binding was determined and the data analysis was carried out with the apparent dissociation constant (Ki) determined by using a non-linear least squares fitting the bound CPM data to the equation below:
# [formula] Where Y is observed CPM bound, Ymax is total bound counts, Ymin is non specific bound counts, (Ymax−Ymin) is specific bound counts, % Imax is the maximum percent inhibition, % I min is the minimum percent inhibition, radiolabel is the probe, and the Kd is the apparent dissociation constant for the radioligand for the receptor as determined by Hot saturation experiments.
# Chain of recombinant human CL receptor/RAMP1 (Q16602 23-461): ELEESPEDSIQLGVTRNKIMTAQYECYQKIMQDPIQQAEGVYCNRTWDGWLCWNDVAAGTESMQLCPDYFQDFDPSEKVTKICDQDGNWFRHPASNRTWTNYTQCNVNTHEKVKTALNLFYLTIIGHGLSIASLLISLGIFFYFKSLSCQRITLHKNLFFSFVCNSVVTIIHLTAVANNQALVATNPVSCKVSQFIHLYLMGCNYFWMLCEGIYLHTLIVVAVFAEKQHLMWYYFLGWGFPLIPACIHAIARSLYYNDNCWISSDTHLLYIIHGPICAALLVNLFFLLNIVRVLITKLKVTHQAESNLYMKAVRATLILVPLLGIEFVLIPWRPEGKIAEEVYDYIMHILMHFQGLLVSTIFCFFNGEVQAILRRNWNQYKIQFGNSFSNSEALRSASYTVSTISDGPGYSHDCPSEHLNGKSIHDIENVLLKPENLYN
# Chain of recombinant human CL receptor/RAMP1 (O60894 27-148): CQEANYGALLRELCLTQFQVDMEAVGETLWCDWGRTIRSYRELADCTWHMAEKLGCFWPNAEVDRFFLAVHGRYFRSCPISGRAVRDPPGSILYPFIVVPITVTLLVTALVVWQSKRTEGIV
row,Ki [nM],Compound
1,3800,"CN1C(=O)NC(=O)C12Cc1cc3ccc(CN4CCC(Cc5ccccc5)CC4)nc3cc1C2 (racemic) [Example 7, (±)-2-[(4-Benzylpiperidin-1-yl)methyl]-3′-methyl-6,8-dihydro-2′H,5′H-spiro[cyclopenta[g]quinoline-7,4′-imidazolidine]-2′,5′-dione]"
2,0.77,"CC1(C)CN(Cc2ccc3cc4c(cc3n2)C[C@]2(C4)C(=O)Nc3ncccc32)[C@@H](Cc2ccccc2)C(=O)N1 [Example 3, (7S)-2-{[(2S)-2-Benzyl-5,5-dimethyl-3-oxopiperazin-1-yl]methyl}-6,8-dihydrospiro[cyclopenta[g]quinoline-7,3′-pyrrolo[2,3-b]pyridin]-2′(1′H)-one]"
3,35,"CN1C(=O)NC(=O)[C@]12Cc1cc3ccc(CN4C(=O)C(C)(C)Nc5ccccc54)nc3cc1C2 [Example 8, (7R)-2-[(3,3-Dimethyl-2-oxo-3,4-dihydroquinoxalin-1(2H)-yl)methyl]-3′-methyl-6,8-dihydro-2′H,5′H-spiro[cyclopenta[g]quinoline-7,4′-imidazolidine]-2′,5′-dione]"
4,180,O=C1Nc2ncccc2C12Cc1cc3ccc(CN4CCc5c([nH]c6ccccc56)C4)nc3cc1C2 (stereo not shown) [Example 45]
5,58,CC(C)(C)OC(=O)N1CCN(Cc2ccc3cc4c(cc3n2)C[C@]2(C4)C(=O)Nc3ncccc32)CC1c1ccccc1 (stereo partly shown) [Example 61]
6,6.6,O=C1Nc2ncccc2[C@@]12Cc1cc3ccc(CN4CCNCC4c4ccccc4)nc3cc1C2 (stereo partly shown) [Example 64]
7,43,O=C1NC2(CCCC2)CN(Cc2ccc3cc4c(cc3n2)C[C@]2(C4)C(=O)Nc3ncccc32)C1c1ccccc1 (stereo partly shown) [Example 69]
8,0.73,O=C1Nc2ncccc2[C@@]12Cc1cc3ccc(CN4CCNCC4)nc3cc1C2 [Example 76]
9,0.72,O=C1N[C@H](Cc2ccccc2)CN(Cc2ccc3cc4c(cc3n2)C[C@]2(C4)C(=O)Nc3ncccc32)C1c1ccccc1 (stereo partly shown) [Example 84]
10,0.34,O=C1NC2(CCCC2)CN(Cc2ccc3cc4c(cc3n2)C[C@]2(C4)C(=O)Nc3ncccc32)C1Cc1ccccc1 (stereo partly shown) [Example 87]
11,2.6,O=C1NC2(CCCC2)CN(Cc2ccc3cc4c(cc3n2)C[C@]2(C4)C(=O)Nc3ncccc32)[C@@H]1Cc1ccccc1 [Example 88]
12,17,CC1(Cc2ccccc2)C(=O)NC2(CCCC2)CN1Cc1ccc2cc3c(cc2n1)C[C@]1(C3)C(=O)Nc2ncccc21 (stereo partly shown) [Example 95]
13,15000,O=C1CC2(CCN(Cc3ccc4cc5c(cc4n3)CC3(C5)C(=O)Nc4ncccc43)CC2)Oc2ccccc21 (stereo not shown) [Example 114]
